In one data set the target is T1, hTRPM8 (Homo sapiens, UniProt Q7Z2W7).
T1 construct: expressed in transfected cells
The data set is described as follows: hTRPM8 agonist assay in a mammalian cell line stably expressing hTRPM8. Type of data set: cell-based. How it is done:
A mammalian cell line derivative which stably expresses hTRPM8 was used in biological assays in association with testing the present compounds with cool-tasting or -feeling properties (Servant et al. US 2007/0259354 A1 and references cited therein). Typical compound concentrations tested were 100 μM, 30 μM, 10 μM, 3.3 μM, 1.1 μM, 0.37 μM, 0.12 μM, 0.04 μM, 0.01 μM and more dilutions for very potent compounds. The present compounds have shown strong activity as agonists of hTRPM8. […] For the sake of comparison, the EC50 of Comparative Compound 1, which was previously disclosed in U.S. 2013/0324557 A1 and has the structure

A further data set is described as follows: Solubility studies. The data set is classed as physicochemical. On the procedure:
For the sake of comparison, the solubility of Comparative Compound 1, which was previously disclosed in U.S. 2013/0324557 A1, was also measured.

In a further data set the test system is panelists. The data set is described as follows: Cool Line Scale Test (sensory study, cooling intensity versus 45 μM WS-3). Type of data set: in vivo, human. The note with it: for Sensory Results: cooling compared with 45 μM WS-3: 5 μM compound, Low Sodium Buffer pH ~7.1, 0.1% ethanol, 15 point line scale; for lingering effect: cool line scale test. On the procedure:
A typical sensory study is described below followed by Table 5 summarizing sensory results of Compounds 101-105.
All samples made with Low Sodium Buffer (LSB) pH ˜7.1 and contain 0.1% ethanol.
Compounds are rated on a 15 point line scale where 45 μM WS-3 (N-Ethyl-p-menthane-3-carboxamide) is ranked as a 5 in cool intensity. In most cases, the compounds are tested to determine at what concentration the cooling intensity is equivalent to 45 μM WS-3. In each test, the panelist is presented with a 0 μM control sample, a 45 μM WS-3 control sample and the experimental compound sample and asked to rate the cooling intensity of each sample. [0218]

The mark [1] stands for this setting: cell line stably expressing hTRPM8, read-out: EC50.
Where [2] appears, read: aqueous buffer, pH 4.0, read-out: Solubility (pH 4.0).
Setting [3] is: pH 7.1, aqueous buffer, read-out: Solubility (pH 7.1).

Here are results for six compounds from patent publication US9732071B2, “Compounds useful as modulators of TRPM8” (Senomyx, Inc., priority 2015, dated 2017).

Values after ≈ are worked out from the molar mass of the structure shown. Read-outs that look alike come from different tables or passages of the source.

T1 sequence (Q7Z2W7 whole entry): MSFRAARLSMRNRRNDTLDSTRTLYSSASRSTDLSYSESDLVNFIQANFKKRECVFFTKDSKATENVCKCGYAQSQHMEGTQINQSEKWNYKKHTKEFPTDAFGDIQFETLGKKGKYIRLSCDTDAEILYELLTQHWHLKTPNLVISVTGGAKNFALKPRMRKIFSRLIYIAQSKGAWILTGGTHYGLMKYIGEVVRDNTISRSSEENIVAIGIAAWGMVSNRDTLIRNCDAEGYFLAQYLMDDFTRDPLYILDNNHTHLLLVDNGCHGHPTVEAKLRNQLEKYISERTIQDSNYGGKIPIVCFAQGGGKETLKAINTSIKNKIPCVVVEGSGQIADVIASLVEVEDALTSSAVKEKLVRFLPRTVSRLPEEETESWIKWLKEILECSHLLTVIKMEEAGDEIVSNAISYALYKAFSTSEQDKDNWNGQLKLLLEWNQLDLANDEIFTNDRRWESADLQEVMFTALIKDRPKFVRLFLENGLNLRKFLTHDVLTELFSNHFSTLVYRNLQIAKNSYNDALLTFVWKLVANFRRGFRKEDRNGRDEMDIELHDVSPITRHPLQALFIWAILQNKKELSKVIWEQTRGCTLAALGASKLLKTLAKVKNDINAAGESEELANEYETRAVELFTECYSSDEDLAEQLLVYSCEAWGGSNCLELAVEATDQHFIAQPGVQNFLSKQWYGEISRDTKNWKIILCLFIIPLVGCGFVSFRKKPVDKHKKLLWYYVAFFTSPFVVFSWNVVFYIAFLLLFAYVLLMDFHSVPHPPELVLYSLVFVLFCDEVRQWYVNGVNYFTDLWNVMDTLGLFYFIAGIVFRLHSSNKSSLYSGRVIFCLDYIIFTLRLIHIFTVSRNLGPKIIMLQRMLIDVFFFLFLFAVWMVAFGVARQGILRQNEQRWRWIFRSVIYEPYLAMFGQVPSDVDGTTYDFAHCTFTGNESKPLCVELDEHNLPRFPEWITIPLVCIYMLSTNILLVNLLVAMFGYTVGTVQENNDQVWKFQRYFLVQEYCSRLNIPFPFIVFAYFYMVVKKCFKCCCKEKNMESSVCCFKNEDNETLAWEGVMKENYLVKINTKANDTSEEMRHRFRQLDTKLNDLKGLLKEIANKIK

Turning to `Cc1ccc(OCC(=O)N(Cc2cccs2)c2ccn[nH]2)cc1` [Comparative Compound 1, reference compound], the EC50 on hTRPM8 (setting [1]) turned out to be 0.3 nM. The figures for the solubility in the data set “Solubility studies” (setting [2]) and in the data set “Solubility studies” (setting [3]) were 106 µM (≈ 34.7 µg/mL) and 171 µM (≈ 56 µg/mL), respectively.
In the case of `Cc1cccc(OCC(=O)N(Cc2cccs2)c2cc[nH]n2)c1` [Compound 101, N-(1H-pyrazol-3-yl)-N-(thiophen-2-ylmethyl)-2-(m-tolyloxy)acetamide], the half-maximal effective concentration (EC50) at hTRPM8 (setting [1]) turned out to be 6.1 nM. The solubility turned out to be 517 µM (≈ 169 µg/mL) in the data set “Solubility studies” (setting [2]) and 152 µM (≈ 49.8 µg/mL) in the data set “Solubility studies” (setting [3]). Further, in “Solubility studies” (pH 4.0), the “Solubility (pH 4.0)” value is “unexpectedly superior solubility”.
Consider `O=C(COc1ccc(F)cc1)N(Cc1cccs1)c1cc[nH]n1` [Compound 102, 2-(4-flourophenoxy)-N-(1H-pyrazol-5-yl)-N-(thiophen-2-ylmethyl)acetamide], for which, at hTRPM8 (setting [1]), the EC50 was determined as 10.7 nM. In “Solubility studies”, the “Solubility (pH 7.1)” value was “unexpectedly superior solubility”. In addition, the solubility in “Solubility studies” (setting [3]) is 503 µM (≈ 167 µg/mL).
Regarding `COc1ccc(OCC(=O)N(Cc2cccs2)c2cc[nH]n2)cc1` [Compound 103, 2-(4-methoxyphenoxy)-N-(1H-pyrazol-3-yl)-N-(thiophen-2-ylmethyl)acetamide], the EC50 at hTRPM8 (setting [1]) was found to be 4.9 nM. For the same compound, in “Solubility studies”, the “Solubility (pH 7.1)” value was “unexpectedly superior solubility”. The solubility in “Solubility studies” (setting [3]) is 403 µM (≈ 138 µg/mL). In the data set with panelists, the “Sensory Results: cooling compared with 45 μM WS-3” value is “equivalent to the cooling 45” and the lingering effect result was “unexpected lingering effect”.
On to `CCc1ccc(OCC(=O)N(Cc2cccs2)c2cc[nH]n2)cc1` [Compound 104, 2-(4-ethylphenoxy)-N-(1H-pyrazol-3-yl)-N-(thiophen-2-ylmethyl)acetamide], for which, on hTRPM8 (setting [1]), the EC50 was under 1 nM. Moreover, in the data set on panelists, the “Sensory Results: cooling compared with 45 μM WS-3” value is “significantly more cooling” and the lingering effect entry is given as “unexpected lingering effect”.
On hTRPM8, `Cc1ccc(OCC(=O)N(Cc2cccs2)c2cc[nH]n2)cc1C` [Compound 105, 2-(3,4-dimethylphenoxy)-N-(1H-pyrazol-3-yl)-N-(thiophen-2-ylmethyl)acetamide] registered a 50% effective concentration (EC50) of 0.7 nM. In the data set on panelists, the lingering effect result is given as “unexpected lingering effect”.

A word on the EC50: it is the concentration giving half of the maximal effect. A word on the solubility: it is how much of the substance goes into solution per volume.
